From patent publication US11337976B2 (Plexxikon Inc., priority 2011, dated 2022)

Tested on: A375 melanoma cells (B-Raf V600E mutation)
Test: A375 (A375_P-ERK) cell activity / cell growth inhibition assay
Type: cell-based, human
Conditions: Homo sapiens, A-375; A375 cells (text: A375_P-ERK)

Row | SMILES | IC50
1 | CN(C)S(=O)(=O)Nc1ccc(F)c(C(=O)c2c[nH]c3ncc(-c4cnc(C5CC5)nc4)cc23)c1F [P-0238, 5-(2-cyclopropylpyrimidin-5-yl)-3-[3-(dimethylsulfamoylamino)-2,6-difluoro-benzoyl]-1H-pyrrolo[2,3-b]pyridine] | < 1 µM
2 | CCN(C)S(=O)(=O)Nc1ccc(F)c(C(=O)c2c[nH]c3ncc(-c4ccc(C5(C#N)CC5)cc4)cc23)c1F [P-0239, 5-[4-(1-cyanocyclopropyl)phenyl]-3-[3-[[ethyl(methyl)sulfamoyl]amino]-2,6-difluoro-benzoyl]-1H-pyrrolo[2,3-b]pyridine] | < 1 µM
3 | CCN(C)S(=O)(=O)Nc1ccc(F)c(C(=O)c2c[nH]c3ncc(-c4cnc(C5CC5)nc4)cc23)c1F [P-0240, 5-(2-cyclopropylpyrimidin-5-yl)-3-[3-[[ethyl(methyl)sulfamoyl]amino]-2,6-difluoro-benzoyl]-1H-pyrrolo[2,3-b]pyridine] | < 1 µM
4 | O=C(c1c(F)ccc(NS(=O)(=O)N2CCCC2)c1F)c1c[nH]c2ncc(-c3cnc(C4CC4)nc3)cc12 [P-0241, N-[3-[5-(2-cyclopropylpyrimidin-5-yl)-1H-pyrrolo[2,3-b]pyridine-3-carbonyl]-2,4-difluoro-phenyl]pyrrolidine-1-sulfonamide] | < 1 µM
5 | CCCNS(=O)(=O)Nc1cccc(C(=O)c2c[nH]c3ncc(-c4cnn(C)c4)cc23)c1F [P-0242, [2-fluoro-3-(propylsulfamoylamino)phenyl]-[5-(1-methylpyrazol-4-yl)-1H-pyrrolo[2,3-b]pyridin-3-yl]methanone] | > 1 µM
6 | O=C(c1cccc(NS(=O)(=O)N2CCCC2)c1F)c1c[nH]c2ncc(-c3ccc(C4(C(=O)O)CC4)cc3)cc12 [P-0243, 1-[4-[3-[2-fluoro-3-(pyrrolidin-1-ylsulfonylamino)benzoyl]-1H-pyrrolo[2,3-b]pyridin-5-yl]phenyl]cyclopropanecarboxylic acid] | > 1 µM
7 | CC1CCN(S(=O)(=O)Nc2cccc(C(=O)c3c[nH]c4ncc(-c5cnc(C6CC6)nc5)cc34)c2F)C1 (centres unmarked) [P-0247, N-[3-[5-(2-cyclopropylpyrimidin-5-yl)-1H-pyrrolo[2,3-b]pyridine-3-carbonyl]-2-fluoro-phenyl]-3-methyl-pyrrolidine-1-sulfonamide] | < 1 µM
8 | N#CC1(c2ccc(-c3cnc4[nH]cc(C(=O)c5c(F)ccc(NS(=O)(=O)N6CCCC6)c5F)c4c3)cc2)CC1 [P-0248, N-[3-[5-[4-(1-cyanocyclopropyl)phenyl]-1H-pyrrolo[2,3-b]pyridine-3-carbonyl]-2,4-difluoro-phenyl]pyrrolidine-1-sulfonamide] | < 1 µM
9 | CCCNS(=O)(=O)Nc1cccc(C(=O)c2c[nH]c3ncc(-c4cnc(C5CC5)nc4)cc23)c1F [P-0251, [5-(2-cyclopropylpyrimidin-5-yl)-1H-pyrrolo[2,3-b]pyridin-3-yl]-[2-fluoro-3-(propylsulfamoylamino)phenyl]methanone] | > 1 µM
10 | CN(C1CC1)S(=O)(=O)Nc1ccc(F)c(C(=O)c2c[nH]c3ncc(-c4cnc(C5CC5)nc4)cc23)c1F [P-0252, 3-[3-[[cyclopropyl(methyl)sulfamoyl]amino]-2,6-difluoro-benzoyl]-5-(2-cyclopropylpyrimidin-5-yl)-1H-pyrrolo[2,3-b]pyridine] | < 1 µM
11 | NC(=O)C1(c2ccc(-c3cnc4[nH]cc(C(=O)c5cccc(NS(=O)(=O)N6CCCC6)c5F)c4c3)cc2)CC1 [P-0253, 1-[4-[3-[2-fluoro-3-(pyrrolidin-1-ylsulfonylamino)benzoyl]-1H-pyrrolo[2,3-b]pyridin-5-yl]phenyl]cyclopropanecarboxamide] | > 1 µM
12 | CCN(C)S(=O)(=O)Nc1ccc(F)c(C(=O)c2c[nH]c3ncc(-c4cnc(N5CCOCC5)nc4)cc23)c1F [P-0258, 4-[5-[3-[3-[[ethyl(methyl)sulfamoyl]amino]-2,6-difluoro-benzoyl]-1H-pyrrolo[2,3-b]pyridin-5-yl]pyrimidin-2-yl]morpholine] | < 1 µM
13 | O=C(c1c(F)ccc(NS(=O)(=O)N2CCCC2)c1F)c1c[nH]c2ncc(-c3cnc(N4CCNCC4)nc3)cc12 [P-0261, N-[2,4-difluoro-3-[5-(2-piperazin-1-ylpyrimidin-5-yl)-1H-pyrrolo[2,3-b]pyridine-3-carbonyl]phenyl]pyrrolidine-1-sulfonamide] | < 1 µM
14 | O=C(c1c(F)ccc(NS(=O)(=O)N2CCCC2)c1F)c1c[nH]c2ncc(-c3cnc(N4CCC(O)CC4)nc3)cc12 [P-0262, N-[2,4-difluoro-3-[5-[2-(4-hydroxy-1-piperidyl)pyrimidin-5-yl]-1H-pyrrolo[2,3-b]pyridine-3-carbonyl]phenyl]pyrrolidine-1-sulfonamide] | < 1 µM
15 | CC(C)(O)c1nc(-c2cnc3[nH]cc(C(=O)c4c(F)ccc(NS(=O)(=O)N5CCCC5)c4F)c3c2)cs1 [P-0265, N-[2,4-difluoro-3-[5-[2-(1-hydroxy-1-methyl-ethyl)thiazol-4-yl]-1H-pyrrolo[2,3-b]pyridine-3-carbonyl]phenyl]pyrrolidine-1-sulfonamide] | < 1 µM
16 | CCN(C)S(=O)(=O)Nc1ccc(F)c(C(=O)c2c[nH]c3ncc(-c4cnc(N5CCNCC5)nc4)cc23)c1F [P-0268, 3-[3-[[ethyl(methyl)sulfamoyl]amino]-2,6-difluoro-benzoyl]-5-(2-piperazin-1-ylpyrimidin-5-yl)-1H-pyrrolo[2,3-b]pyridine] | < 1 µM
17 | C[C@@H]1CCN(S(=O)(=O)Nc2cccc(C(=O)c3c[nH]c4ncc(-c5cnc(C6CC6)nc5)cc34)c2F)C1 [P-0271, (3R)—N-[3-[5-(2-cyclopropylpyrimidin-5-yl)-1H-pyrrolo[2,3-b]pyridine-3-carbonyl]-2-fluoro-phenyl]-3-methyl-pyrrolidine-1-sulfonamide] | < 1 µM
18 | O=C(c1c(F)ccc(NS(=O)(=O)N2CCCC2)c1F)c1c[nH]c2ncc(-c3ccncc3)cc12 [P-0273, N-[2,4-difluoro-3-[5-(4-pyridyl)-1H-pyrrolo[2,3-b]pyridine-3-carbonyl]phenyl]pyrrolidine-1-sulfonamide] | < 1 µM
19 | CCN(C)S(=O)(=O)Nc1ccc(F)c(C(=O)c2c[nH]c3ncc(-c4cccc(C5(C#N)CC5)c4)cc23)c1F [P-0276, 5-[3-(1-cyanocyclopropyl)phenyl]-3-[3-[[ethyl(methyl)sulfamoyl]amino]-2,6-difluoro-benzoyl]-1H-pyrrolo[2,3-b]pyridine] | < 1 µM
20 | O=C(c1cccc(NS(=O)(=O)N2CCCC2)c1F)c1c[nH]c2ncc(-c3ccncc3)cc12 [P-0281, N-[2-fluoro-3-[5-(4-pyridyl)-1H-pyrrolo[2,3-b]pyridine-3-carbonyl]phenyl]pyrrolidine-1-sulfonamide] | < 1 µM
21 | O=C(c1c(F)ccc(NS(=O)(=O)N2CCCC2)c1F)c1c[nH]c2ncc(-c3ccnc(N4CCOCC4)n3)cc12 [P-0282, N-[2,4-difluoro-3-[5-(2-morpholinopyrimidin-4-yl)-1H-pyrrolo[2,3-b]pyridine-3-carbonyl]phenyl]pyrrolidine-1-sulfonamide] | < 1 µM

Results, then the molecule that gave them:

Row | IC50 | SMILES
22 | < 1 µM | CN(C1CC1)S(=O)(=O)Nc1cccc(C(=O)c2c[nH]c3ncc(-c4cnc(C5CC5)nc4)cc23)c1F [P-0249, 3-[3-[[cyclopropyl(methyl)sulfamoyl]amino]-2-fluoro-benzoyl]-5-(2-cyclopropylpyrimidin-5-yl)-1H-pyrrolo[2,3-b]pyridine]
23 | < 1 µM | CCOc1ncc(-c2cnc3[nH]cc(C(=O)c4c(F)ccc(NS(=O)(=O)N(C)CC)c4F)c3c2)cn1 [P-0256, 5-(2-ethoxypyrimidin-5-yl)-3-[3-[[ethyl(methyl)sulfamoyl]amino]-2,6-difluoro-benzoyl]-1H-pyrrolo[2,3-b]pyridine]
24 | < 1 µM | CCN(C)S(=O)(=O)Nc1ccc(F)c(C(=O)c2c[nH]c3ncc(-c4cccc(N5CCOCC5)c4)cc23)c1F [P-0259, 4-[3-[3-[3-[[ethyl(methyl)sulfamoyl]amino]-2,6-difluoro-benzoyl]-1H-pyrrolo[2,3-b]pyridin-5-yl]phenyl]morpholine]
25 | < 1 µM | CN1CCN(c2ncc(-c3cnc4[nH]cc(C(=O)c5c(F)ccc(NS(=O)(=O)N6CCCC6)c5F)c4c3)cn2)CC1 [P-0260, N-[2,4-difluoro-3-[5-[2-(4-methylpiperazin-1-yl)pyrimidin-5-yl]-1H-pyrrolo[2,3-b]pyridine-3-carbonyl]phenyl]pyrrolidine-1-sulfonamide]
26 | < 1 µM | CCN(C)S(=O)(=O)Nc1ccc(F)c(C(=O)c2c[nH]c3ncc(-c4cnc(N5CCN(C)CC5)nc4)cc23)c1F [P-0263, 3-[3-[[ethyl(methyl)sulfamoyl]amino]-2,6-difluoro-benzoyl]-5-[2-(4-methylpiperazin-1-yl)pyrimidin-5-yl]-1H-pyrrolo[2,3-b]pyridine]
27 | < 1 µM | O=C(c1c(F)ccc(NS(=O)(=O)N2CCCC2)c1F)c1c[nH]c2ncc(-c3cnc(N4CCC4)nc3)cc12 [P-0269, N-[3-[5-[2-(azetidin-1-yl)pyrimidin-5-yl]-1H-pyrrolo[2,3-b]pyridine-3-carbonyl]-2,4-difluoro-phenyl]pyrrolidine-1-sulfonamide]
28 | < 1 µM | O=C(c1cccc(NS(=O)(=O)N2CCCC2)c1F)c1c[nH]c2ncc(C3CC3)cc12 [P-0274, N-[3-(5-cyclopropyl-1H-pyrrolo[2,3-b]pyridine-3-carbonyl)-2-fluoro-phenyl]pyrrolidine-1-sulfonamide]
29 | < 1 µM | CCN(C)S(=O)(=O)Nc1ccc(F)c(C(=O)c2c[nH]c3ncc(-c4cnc(N5CCC(O)CC5)nc4)cc23)c1F [P-0275]
30 | < 1 µM | CCN(C)S(=O)(=O)Nc1ccc(F)c(C(=O)c2c[nH]c3ncc(-c4cnc(N5CCC5)nc4)cc23)c1F [P-0277, 5-[2-(azetidin-1-yl)pyrimidin-5-yl]-3-[3-[[ethyl(methyl)sulfamoyl]amino]-2,6-difluoro-benzoyl]-1H-pyrrolo[2,3-b]pyridine]
31 | > 1 µM | Nc1ncc(-c2cnc3[nH]cc(C(=O)c4c(F)ccc(NS(=O)(=O)N5CCCC5)c4F)c3c2)cn1 [P-0279, N-[3-[5-(2-aminopyrimidin-5-yl)-1H-pyrrolo[2,3-b]pyridine-3-carbonyl]-2,4-difluoro-phenyl]pyrrolidine-1-sulfonamide]
32 | < 1 µM | Nc1nccc(-c2cnc3[nH]cc(C(=O)c4c(F)ccc(NS(=O)(=O)N5CCCC5)c4F)c3c2)n1 [P-0280, N-[3-[5-(2-aminopyrimidin-4-yl)-1H-pyrrolo[2,3-b]pyridine-3-carbonyl]-2,4-difluoro-phenyl]pyrrolidine-1-sulfonamide]
